We go through two molecules from publication PMC5559104, “Heat shock protein 90 localizes to the surface and augments virulence factors of Cryptococcus neoformans” (PLoS Neglected Tropical Diseases, 2017).

Assay [1] addresses T1, CnHsp90 (heat shock protein 90) (Cryptococcus neoformans, UniProt J9VVA4).
T1 construct: gene CNAG_06150; recombinant CnHsp90 6x-His tag fusion protein (2157 bp amplified product in pRSET-A)
In words: intrinsic tryptophan fluorescence quenching; also inhibits ATPase activity of the purified protein (IC50 […] at […]°C, […] at […]°C). The format is binding.

For assay [2], the target named is T1, CnHsp90 (heat shock protein 90). In words: intrinsic tryptophan fluorescence quenching; also hydrolysis of γ-32P-ATP (Km […] at […]°C, […] at […]°C). The class given is binding.

pKd: −log10 of the molar value.

T1 sequence (J9VVA4 entry or part of it): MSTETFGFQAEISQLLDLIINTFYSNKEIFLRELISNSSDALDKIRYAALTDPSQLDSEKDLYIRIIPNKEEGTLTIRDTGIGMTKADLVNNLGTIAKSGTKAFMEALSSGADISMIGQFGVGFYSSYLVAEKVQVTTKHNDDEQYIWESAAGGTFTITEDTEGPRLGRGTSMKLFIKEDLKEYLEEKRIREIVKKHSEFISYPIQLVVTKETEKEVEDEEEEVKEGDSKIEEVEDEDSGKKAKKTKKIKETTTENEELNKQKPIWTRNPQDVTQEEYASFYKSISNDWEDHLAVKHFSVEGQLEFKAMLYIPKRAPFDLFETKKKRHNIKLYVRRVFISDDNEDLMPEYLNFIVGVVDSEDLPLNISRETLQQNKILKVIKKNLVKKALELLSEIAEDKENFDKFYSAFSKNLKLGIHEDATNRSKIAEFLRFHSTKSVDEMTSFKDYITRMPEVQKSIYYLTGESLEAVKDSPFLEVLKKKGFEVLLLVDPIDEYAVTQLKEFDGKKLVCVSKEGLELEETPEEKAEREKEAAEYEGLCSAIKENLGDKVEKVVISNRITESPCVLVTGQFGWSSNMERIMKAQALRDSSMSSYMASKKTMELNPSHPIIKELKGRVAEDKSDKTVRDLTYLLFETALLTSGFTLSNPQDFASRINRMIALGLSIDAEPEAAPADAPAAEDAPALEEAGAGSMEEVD

As for `C=CCNC1=C2C[C@@H](C)C[C@H](OC)[C@H](O)[C@@H](C)/C=C(\C)[C@H](OC(N)=O)[C@@H](OC)/C=C\C=C(/C)C(=O)NC(=CC1=O)C2=O` [17-AAG], the pKd (as a rule, −log10 of the Kd, conventionally taken in molar units) in assay [1] is 4.89.

`Nc1ncnc2c1ncn2[C@@H]1O[C@H](COP(=O)(O)OP(=O)(O)OP(=O)(O)O)[C@@H](O)[C@H]1O` [ATP] gave a pKd in assay [2] of 3.30.
